Data on 14 molecules can be found in ChEMBL document CHEMBL5360622, “Leucettinibs, a Class of DYRK/CLK Kinase Inhibitors Inspired by the Marine Sponge Natural Product Leucettamine B” (J Med Chem, 2023).

The structures appear in SMILES notation.

The target in test [1] is T1, Dual specificity tyrosine-phosphorylation-regulated kinase 2 (Homo sapiens, UniProt Q92630).
T1 sequence (Q92630 whole entry): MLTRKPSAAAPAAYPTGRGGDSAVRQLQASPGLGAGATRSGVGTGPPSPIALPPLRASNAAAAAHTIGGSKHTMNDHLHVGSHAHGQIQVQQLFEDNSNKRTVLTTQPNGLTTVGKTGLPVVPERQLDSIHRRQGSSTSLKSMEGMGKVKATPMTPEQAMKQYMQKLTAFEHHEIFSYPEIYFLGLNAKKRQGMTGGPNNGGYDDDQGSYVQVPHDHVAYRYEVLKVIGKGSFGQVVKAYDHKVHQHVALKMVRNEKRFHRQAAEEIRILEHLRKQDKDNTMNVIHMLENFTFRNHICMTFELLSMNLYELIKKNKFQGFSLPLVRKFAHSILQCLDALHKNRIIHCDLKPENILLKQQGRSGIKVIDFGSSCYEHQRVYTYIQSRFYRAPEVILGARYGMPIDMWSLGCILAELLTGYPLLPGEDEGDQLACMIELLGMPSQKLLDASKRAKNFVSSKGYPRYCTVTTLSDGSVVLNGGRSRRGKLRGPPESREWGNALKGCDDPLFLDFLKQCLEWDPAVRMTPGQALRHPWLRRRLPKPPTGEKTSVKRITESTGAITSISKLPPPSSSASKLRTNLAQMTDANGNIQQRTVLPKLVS

The target in test [2] is Casein kinase I isoform epsilon (Homo sapiens, UniProt P49674).
In test [3] the target is T2, Dual specificity tyrosine-phosphorylation-regulated kinase 3 (Homo sapiens, UniProt O43781).
T2 sequence (O43781 whole entry): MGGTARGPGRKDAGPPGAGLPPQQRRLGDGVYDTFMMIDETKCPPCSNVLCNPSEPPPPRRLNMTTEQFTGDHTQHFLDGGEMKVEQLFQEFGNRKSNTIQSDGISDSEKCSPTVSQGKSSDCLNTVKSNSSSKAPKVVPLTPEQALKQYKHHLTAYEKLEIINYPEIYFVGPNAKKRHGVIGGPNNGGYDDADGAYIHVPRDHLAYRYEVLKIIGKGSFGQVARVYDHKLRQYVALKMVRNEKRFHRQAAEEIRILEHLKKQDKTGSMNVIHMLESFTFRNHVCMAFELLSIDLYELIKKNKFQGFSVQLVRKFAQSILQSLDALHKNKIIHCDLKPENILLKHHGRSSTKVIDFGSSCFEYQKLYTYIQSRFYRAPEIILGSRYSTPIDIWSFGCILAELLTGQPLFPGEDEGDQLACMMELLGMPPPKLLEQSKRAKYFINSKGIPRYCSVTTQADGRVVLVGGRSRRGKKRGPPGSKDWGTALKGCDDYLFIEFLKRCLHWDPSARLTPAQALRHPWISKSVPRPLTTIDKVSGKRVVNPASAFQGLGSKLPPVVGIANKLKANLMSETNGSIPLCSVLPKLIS

For test [4], the target named is Dual specificity protein kinase CLK4 (Homo sapiens, UniProt Q9HAZ1).
In test [5] the target is Dual specificity protein kinase CLK2 (Homo sapiens, UniProt P49760).
The target of test [6] is Dual specificity protein kinase CLK3 (Homo sapiens, UniProt P49761). The test is classed as cell-based, Sf9.
The target in test [7] is Dual specificity protein kinase CLK1 (Homo sapiens, UniProt P49759). The test is classed as cell-based, Sf9.
Test [8] concerns the target T3, Dual specificity tyrosine-phosphorylation-regulated kinase 4 (Homo sapiens, UniProt Q9NR20).
T3 sequence (Q9NR20 whole entry): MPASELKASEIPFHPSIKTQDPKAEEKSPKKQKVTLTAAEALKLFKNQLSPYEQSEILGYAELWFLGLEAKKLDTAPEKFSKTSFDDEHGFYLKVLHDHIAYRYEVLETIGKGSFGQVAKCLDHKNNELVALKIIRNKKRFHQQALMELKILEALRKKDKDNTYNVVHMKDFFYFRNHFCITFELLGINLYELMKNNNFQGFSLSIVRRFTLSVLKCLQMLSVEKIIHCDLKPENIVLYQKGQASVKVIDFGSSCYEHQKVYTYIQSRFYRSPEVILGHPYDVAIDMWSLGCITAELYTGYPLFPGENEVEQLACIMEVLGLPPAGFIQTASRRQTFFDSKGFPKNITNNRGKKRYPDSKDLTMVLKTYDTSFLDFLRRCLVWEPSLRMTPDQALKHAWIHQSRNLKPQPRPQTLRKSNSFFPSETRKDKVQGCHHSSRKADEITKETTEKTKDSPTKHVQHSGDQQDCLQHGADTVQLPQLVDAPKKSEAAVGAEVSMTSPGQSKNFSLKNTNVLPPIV

The target in test [9] is Glycogen synthase kinase-3 beta (Homo sapiens, UniProt P49841). In kind it is cell-based, Sf9.
Test [10] has as its target Cyclin-dependent kinase 5/CDK5 activator 1 (Homo sapiens, UniProt Q00535). The test is classed as cell-based, Sf9.
Test [11] concerns the target Dual specificity tyrosine-phosphorylation-regulated kinase 1A (Homo sapiens, UniProt Q13627).

Cyclin-dependent kinase 5/CDK5 activator 1, sequence (Q00535 whole entry): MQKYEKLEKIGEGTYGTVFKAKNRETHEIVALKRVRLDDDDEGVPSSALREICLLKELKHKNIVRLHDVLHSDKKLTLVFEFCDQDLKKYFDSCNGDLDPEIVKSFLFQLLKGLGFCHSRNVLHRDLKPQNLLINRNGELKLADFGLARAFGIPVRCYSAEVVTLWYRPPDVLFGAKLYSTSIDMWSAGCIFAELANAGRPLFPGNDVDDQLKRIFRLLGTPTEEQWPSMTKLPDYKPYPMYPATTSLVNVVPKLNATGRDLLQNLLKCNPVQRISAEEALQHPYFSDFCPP
Cyclin-dependent kinase 5/CDK5 activator 1, sequence (Q15078 whole entry, further chain): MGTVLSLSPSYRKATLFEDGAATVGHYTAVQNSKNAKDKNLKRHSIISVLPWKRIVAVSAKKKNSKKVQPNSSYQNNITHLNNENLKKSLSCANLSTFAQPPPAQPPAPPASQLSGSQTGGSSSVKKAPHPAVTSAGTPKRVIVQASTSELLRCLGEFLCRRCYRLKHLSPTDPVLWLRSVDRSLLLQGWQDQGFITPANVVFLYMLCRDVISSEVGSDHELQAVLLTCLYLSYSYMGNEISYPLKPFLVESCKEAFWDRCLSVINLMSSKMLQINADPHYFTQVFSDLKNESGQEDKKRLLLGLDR
Glycogen synthase kinase-3 beta, sequence (P49841 whole entry): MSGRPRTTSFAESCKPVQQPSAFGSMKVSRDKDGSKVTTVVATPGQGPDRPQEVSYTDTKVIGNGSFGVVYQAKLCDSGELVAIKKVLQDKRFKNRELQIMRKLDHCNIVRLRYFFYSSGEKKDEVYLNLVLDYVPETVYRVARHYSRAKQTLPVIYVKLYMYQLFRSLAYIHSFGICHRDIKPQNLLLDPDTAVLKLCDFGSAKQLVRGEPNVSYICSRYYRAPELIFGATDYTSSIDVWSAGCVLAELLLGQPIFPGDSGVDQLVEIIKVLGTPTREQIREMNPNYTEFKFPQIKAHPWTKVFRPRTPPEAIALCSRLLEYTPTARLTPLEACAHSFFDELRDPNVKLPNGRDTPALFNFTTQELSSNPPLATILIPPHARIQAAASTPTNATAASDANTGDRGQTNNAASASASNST
Casein kinase I isoform epsilon, sequence (P49674 whole entry, canonical isoform): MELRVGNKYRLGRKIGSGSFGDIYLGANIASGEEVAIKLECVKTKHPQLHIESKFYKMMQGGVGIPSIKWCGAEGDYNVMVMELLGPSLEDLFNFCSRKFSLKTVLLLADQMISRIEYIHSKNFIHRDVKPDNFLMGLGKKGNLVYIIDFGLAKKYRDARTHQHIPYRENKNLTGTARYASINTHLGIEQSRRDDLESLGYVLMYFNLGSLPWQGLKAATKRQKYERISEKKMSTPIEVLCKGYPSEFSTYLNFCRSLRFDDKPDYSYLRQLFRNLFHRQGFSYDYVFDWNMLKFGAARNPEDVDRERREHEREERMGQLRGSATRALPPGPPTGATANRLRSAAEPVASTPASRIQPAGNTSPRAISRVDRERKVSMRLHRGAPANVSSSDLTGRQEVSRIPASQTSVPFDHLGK
Dual specificity protein kinase CLK4, sequence (Q9HAZ1 whole entry): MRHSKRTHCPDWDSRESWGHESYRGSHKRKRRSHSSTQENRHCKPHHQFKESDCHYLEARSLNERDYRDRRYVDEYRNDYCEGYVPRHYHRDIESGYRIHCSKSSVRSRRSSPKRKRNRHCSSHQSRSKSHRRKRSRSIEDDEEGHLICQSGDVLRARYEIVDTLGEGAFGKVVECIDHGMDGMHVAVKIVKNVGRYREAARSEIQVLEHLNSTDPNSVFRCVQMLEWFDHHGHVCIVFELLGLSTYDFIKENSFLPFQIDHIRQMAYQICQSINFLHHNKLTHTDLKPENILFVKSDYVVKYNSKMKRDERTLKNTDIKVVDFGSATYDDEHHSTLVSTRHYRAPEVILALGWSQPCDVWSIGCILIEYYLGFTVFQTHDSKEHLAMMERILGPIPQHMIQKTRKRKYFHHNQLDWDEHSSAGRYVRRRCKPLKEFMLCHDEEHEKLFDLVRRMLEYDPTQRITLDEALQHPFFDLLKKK
Dual specificity protein kinase CLK3, sequence (P49761 whole entry): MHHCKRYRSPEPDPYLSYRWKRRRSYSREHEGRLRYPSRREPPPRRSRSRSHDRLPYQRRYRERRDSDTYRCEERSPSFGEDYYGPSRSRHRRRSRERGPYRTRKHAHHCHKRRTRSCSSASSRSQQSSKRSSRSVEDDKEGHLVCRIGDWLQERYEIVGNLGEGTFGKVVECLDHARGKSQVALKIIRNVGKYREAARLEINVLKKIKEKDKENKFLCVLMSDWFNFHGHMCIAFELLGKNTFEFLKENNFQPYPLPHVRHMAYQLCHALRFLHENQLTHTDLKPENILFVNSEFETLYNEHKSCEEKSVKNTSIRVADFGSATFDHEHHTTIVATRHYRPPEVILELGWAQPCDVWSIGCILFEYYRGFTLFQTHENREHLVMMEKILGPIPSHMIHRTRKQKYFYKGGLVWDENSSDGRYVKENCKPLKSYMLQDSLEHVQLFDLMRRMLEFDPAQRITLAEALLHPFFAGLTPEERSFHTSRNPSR
Dual specificity protein kinase CLK2, sequence (P49760 whole entry): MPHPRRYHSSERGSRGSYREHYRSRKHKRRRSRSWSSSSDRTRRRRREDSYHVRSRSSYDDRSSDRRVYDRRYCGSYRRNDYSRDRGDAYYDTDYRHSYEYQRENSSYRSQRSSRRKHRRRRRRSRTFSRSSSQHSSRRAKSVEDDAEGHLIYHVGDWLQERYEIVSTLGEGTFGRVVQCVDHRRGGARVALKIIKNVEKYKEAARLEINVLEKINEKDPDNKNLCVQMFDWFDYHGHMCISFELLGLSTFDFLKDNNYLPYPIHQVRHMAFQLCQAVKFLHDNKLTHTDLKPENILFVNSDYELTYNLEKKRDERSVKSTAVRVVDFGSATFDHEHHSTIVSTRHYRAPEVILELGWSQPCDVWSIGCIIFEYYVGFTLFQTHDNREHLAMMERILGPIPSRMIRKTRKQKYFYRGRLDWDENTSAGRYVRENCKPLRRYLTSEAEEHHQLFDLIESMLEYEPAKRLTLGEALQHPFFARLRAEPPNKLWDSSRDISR
Dual specificity protein kinase CLK1, sequence (P49759 whole entry): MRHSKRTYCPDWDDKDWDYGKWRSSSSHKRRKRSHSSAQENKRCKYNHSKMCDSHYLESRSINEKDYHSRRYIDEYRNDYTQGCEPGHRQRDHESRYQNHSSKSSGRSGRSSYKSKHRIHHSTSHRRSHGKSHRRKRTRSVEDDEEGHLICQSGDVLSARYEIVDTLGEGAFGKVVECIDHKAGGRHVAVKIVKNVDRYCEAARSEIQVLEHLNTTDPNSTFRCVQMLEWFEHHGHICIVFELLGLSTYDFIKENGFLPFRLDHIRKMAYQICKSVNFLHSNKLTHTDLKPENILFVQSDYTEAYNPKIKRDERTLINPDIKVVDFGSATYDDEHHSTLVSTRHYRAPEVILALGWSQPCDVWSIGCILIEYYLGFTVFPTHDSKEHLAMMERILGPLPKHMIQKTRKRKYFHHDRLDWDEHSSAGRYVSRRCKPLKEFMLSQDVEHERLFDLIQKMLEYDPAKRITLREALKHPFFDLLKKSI

As usually defined, the IC50 is the concentration that inhibits the measured activity by half. Higher therefore signals weaker potency in that assay. Take `Cn1cnc2cc(/C=C3\N=C(NC4CCCCCC4)NC3=O)ccc21`: the IC50 in test [1], in test [2], in test [3], in [4], in test [5] and in test [6] was greater than 10 µM throughout. Also, the IC50 in test [7], in test [8], in test [9], in test [10] and in test [11] was greater than 10 µM in each case.
`Cn1ccc2cc(/C=C3\N=C(NC4CCCCC4)NC3=O)ccc21`: the IC50 in test [1], in test [2], in [3], in [4], in [5] and in [6] was greater than 10 µM throughout. Moreover, the half-inhibitory concentration (IC50) in test [7], in test [8], in test [9], in test [10] and in test [11] was greater than 10 µM each time.
With `COC(=O)[C@H](C)NC1=N/C(=C\c2ccc3ncsc3c2)C(=O)N1`, the IC50 in test [1] is 0.413 µM; in [2], greater than 10 µM; in [3], 1.23 µM; in test [4] it was 0.007 µM; in test [5], 0.086 µM; in [6], 0.284 µM. Also, the IC50 in test [7] is 0.02 µM; in test [8], 2.29 µM; in test [9] it was 5.14 µM; in test [10], greater than 10 µM; in [11] it was 0.007 µM.
For `Cn1cnc2cc(/C=C3\N=C(NC45CC6CC(CC(C6)C4)C5)NC3=O)ccc21`, the IC50 in [1], in test [2], in test [3], in [4], in test [5] and in test [6] was greater than 10 µM throughout. Also, the IC50 in test [7], in test [8], in [9], in [10] and in test [11] was greater than 10 µM in each case.
Take `O=C1NC(NC2CCCCCC2)=N/C1=C\c1ccc2[nH]ccc2c1`: the IC50 in test [1], in test [2], in test [3], in test [4], in test [5] and in test [6] was greater than 10 µM each time. In addition, the 50% inhibitory concentration (IC50) in [7], in test [8], in test [9], in test [10] and in [11] was greater than 10 µM each time.
`CN1CCN(c2ccc(NC3=N/C(=C\c4ccc5c(c4)OCCO5)C(=O)N3)cc2)CC1`: the IC50 worked out at 0.008 µM in [1]; 0.014 µM in test [3]; 0.019 µM in [4]; 0.067 µM in test [5]; 1.1 µM in test [6]; 0.017 µM in [7]. For the same molecule, the IC50 in test [9] worked out at 0.12 µM; in [11], 0.007 µM.
Regarding `COc1ccc(/C=C2\N=C(Nc3ccc(N4CCN(C)CC4)cc3)NC2=O)cc1O`, the IC50 in test [1] turned out to be 0.015 µM; in test [3] it was 0.01 µM; in [4] it was 0.012 µM; in test [5], 0.03 µM; in [6], 0.7 µM; in [7], 0.012 µM. Further, the IC50 came to 0.2 µM in test [9] and 0.014 µM in [11].
Consider `O=C1NC(NC2CCCCCC2)=N/C1=C\c1ccc2c(c1)OCO2`, for which the IC50 in [1] is 5.08 µM; in test [2], greater than 10 µM; in [3], 3.19 µM; in [4], 0.02 µM; in test [5], 0.826 µM; in [6] it was 4.44 µM. The IC50 was 0.042 µM in [7]; 1.23 µM in test [8]; greater than 10 µM in [9]; greater than 10 µM in [10]; 0.047 µM in [11].
Take `O=C1NC(NC23CC4CC(CC(C4)C2)C3)=N/C1=C\c1ccc2[nH]ncc2c1`: the IC50 in test [1] stood at 0.26 µM; in test [3] it was 0.074 µM; in test [4], 0.004 µM; in test [5], 0.014 µM; in test [6], 1.08 µM; in test [7], 0.005 µM. Moreover, the IC50 in test [8] was 0.663 µM; in test [9], 7.77 µM; in test [10], greater than 10 µM; in [11], 0.01 µM.
For the molecule `Cn1ccc2cc(/C=C3\N=C(NC4CCCCCC4)NC3=O)ccc21`, the IC50 in test [1], in test [2], in test [3], in [4], in [5] and in [6] was greater than 10 µM each time. Moreover, the IC50 in [7], in test [8], in [9], in test [10] and in test [11] was greater than 10 µM throughout.
Turning to `Cn1cnc2ccc(/C=C3\N=C(NC45CC6CC(CC(C6)C4)C5)NC3=O)cc21`, the 50% inhibitory concentration (IC50) in [1] was 0.095 µM; in test [2], greater than 10 µM; in [3], 0.068 µM; in test [4], 0.003 µM; in [5], 0.003 µM; in test [6] it was 1.06 µM. Moreover, the IC50 in [7] worked out at 0.009 µM; in [8] it was 0.08 µM; in test [9], 1.54 µM; in test [10], 0.65 µM; in test [11] it was 0.007 µM.
Regarding `Cn1cnc2cc(/C=C3\N=C(NC4CCCCC4)NC3=O)ccc21`, the IC50 in test [1], in test [2], in [3], in test [4], in test [5] and in test [6] was greater than 10 µM in each case. Besides, the IC50 in test [7], in test [8], in test [9], in [10] and in test [11] was greater than 10 µM in each case.
As to `O=C1NC(NC23CC4CC(CC(C4)C2)C3)=N/C1=C\c1ccc2[nH]ccc2c1`, the IC50 in test [1] is greater than 10 µM; in test [2], greater than 10 µM; in test [3], greater than 10 µM; in test [4] it was 2.55 µM; in [5], 3.61 µM; in [6] it was greater than 10 µM. Further, the IC50 in test [7] is 8.83 µM; in [8], greater than 10 µM; in [9] it was greater than 10 µM; in test [10], greater than 10 µM; in test [11], 0.957 µM.
As to `O=C1NC(NC2CCCCC2)=N/C1=C\c1ccc2c(c1)OCO2`, the IC50 in [2] was greater than 10 µM; in test [3], 2.08 µM; in [4], 0.043 µM; in test [5], 0.955 µM; in [6], 4.28 µM; in test [7], 0.092 µM. The IC50 in test [8] is 1.32 µM; in test [9] it was 8.4 µM; in test [10], greater than 10 µM; in test [11], 0.074 µM.
